# Measurements from ChEMBL document CHEMBL5260795, “Antifungal potential of marine natural products” (Eur J Med Chem, 2017).
# Experiments:
# Nannizzia gypsea [1] = assay: Antifungal activity against Microsporum gypseum ATCC31388; assay type: functional
# Candida tropicalis [2] = assay: Antifungal activity against Candida tropicalis assessed as fungal growth inhibition; assay type: functional
# Pyricularia oryzae [3] = assay: Antifungal activity against Pyricularia oryzae; assay type: functional
# Alternaria solani = assay: Antifungal activity against Alternaria solani; assay type: functional
# Candida albicans [4] = assay: Antifungal activity against amphotericin-B-resistant Candida albicans assessed as zone of inhibition 1 ug/disk; assay type: functional; settings: dose 1 µg
# Trichophyton rubrum = assay: Antifungal activity against Trichophyton rubrum assessed as inhibition of fungal growth by atomatic microplate reader analysis; assay type: functional
# Pichia kudriavzevii = assay: Antifungal activity against clinical strain Candida krusei assessed as inhibition of fungal growth by atomatic microplate reader analysis; assay type: functional
# Cryptococcus neoformans [5] = assay: Antifungal activity against Cryptococcus neoformans ATCC32609 assessed as inhibition of fungal growth by atomatic microplate reader analysis; assay type: functional
# Aspergillus fumigatus [6] = assay: Antifungal activity against clinical strain Aspergillus fumigatus assessed as inhibition of fungal growth by atomatic microplate reader analysis; assay type: functional
# Candida albicans [7] = assay: Antifungal activity against Candida albicans ATCC76615 assessed as inhibition of fungal growth by atomatic microplate reader analysis; assay type: functional
# Candida tropicalis [8] = assay: Antifungal activity against clinical strain Candida tropicalis assessed as inhibition of fungal growth by atomatic microplate reader analysis; assay type: functional
# Candida albicans [9] = assay: Antifungal activity against Candida albicans ATCC 24433; assay type: functional
# Alternaria brassicae = assay: Antifungal activity against Alternaria brassicae assessed as inhibition of fungal growth; assay type: functional
# Fusarium oxysporum = assay: Antifungal activity against Fusarium oxysporum measured after 96 hrs by two fold serial dilution technique; assay type: functional
# Epidermophyton floccosum = assay: Antifungal activity against Epidermophyton floccosum measured after 96 hrs by two fold serial dilution technique; assay type: functional
# [10] = tested on: Trichophyton mentagrophytes; assay: Antifungal activity against Trichophyton mentagrophytes measured after 96 hrs by two fold serial dilution technique; assay type: functional
# Candida albicans [11] = assay: Antifungal activity against Candida albicans measured after 96 hrs by two fold serial dilution technique; assay type: functional
# Nannizzia gypsea [12] = assay: Antifungal activity against Microsporum gypseum measured after 96 hrs by two fold serial dilution technique; assay type: functional
# Aspergillus niger [13] = assay: Antifungal activity against Aspergillus niger measured after 96 hrs by two fold serial dilution technique; assay type: functional
# Aspergillus fumigatus [14] = assay: Antifungal activity against Aspergillus fumigatus measured after 96 hrs by two fold serial dilution technique; assay type: functional
# Candida tropicalis [15] = assay: Antimicrobial activity against amphotericin-B-resistant Candida tropicalis; assay type: functional
# Candida albicans [16] = assay: Antimicrobial activity against Candida albicans assessed as inhibition of microbial growth; assay type: functional
# Cryptococcus neoformans [17] = assay: Antimicrobial activity against Cryptococcus neoformans; assay type: functional
# Candida tropicalis [18] = assay: Antimicrobial activity against nystatin-resistant Candida tropicalis; assay type: functional
# Cryptococcus neoformans [19] = assay: Antifungal activity against Cryptococcus neoformans; assay type: functional, organism-based
# Saccharomyces cerevisiae = assay: Antifungal activity against Saccharomyces cerevisiae assessed as inhibition of fungal growth; assay type: functional, organism-based
# Cryptococcus neoformans [20] = assay: Antifungal activity against Cryptococcus neoformans assessed as fungal growth inhibition; assay type: functional
# Aspergillus niger [21] = assay: Antifungal activity against Aspergillus niger measured after 3 to 4 days by agar plate diffusion method; assay type: functional; settings: time 3-4 day
# Ogataea angusta = assay: Antifungal activity against Pichia angusta measured after 3 to 4 days by agar plate diffusion method; assay type: functional; settings: time 3-4 day
# Cryptococcus neoformans [22] = assay: Antifungal activity against Cryptococcus neoformans measured after 3 to 4 days by agar plate diffusion method; assay type: functional; settings: time 3-4 day
# Rhagastis acuta = assay: Antifungal activity against Rhagastis acuta measured after 3 to 4 days by agar plate diffusion method; assay type: functional; settings: time 3-4 day
# Candida albicans [23] = assay: Antifungal activity against Candida albicans measured after 3 to 4 days by agar plate diffusion method; assay type: functional; settings: time 3-4 day
# Botrytis fabae = assay: Antifungal activity against Botrytis fabae measured after 3 to 4 days by agar plate diffusion method; assay type: functional; settings: time 3-4 day
# Pyricularia oryzae [24] = assay: Antifungal activity against Pyricularia oryzae assessed as inhibition of fungal growth; assay type: functional
smiles,measurement,setting,value
CO[C@@H]1[C@@H](O)[C@H](O[C@@H]2[C@@H](O)[C@H](O[C@@H]3CO[C@@H](O[C@H]4CC[C@]5(C)[C@@H]6CC[C@]78C(=O)O[C@@](C)(C[C@H](CC(C)C)OC(C)=O)[C@H]7C(=O)C[C@@]8(C)C6=CC[C@H]5C4(C)C)[C@H](O[C@@H]4O[C@H](C)[C@@H](O[C@@H]5OC[C@@H](O)[C@H](O[C@@H]6O[C@H](CO)[C@@H](O)[C@H](OC)[C@H]6O)[C@H]5O)[C@H](O)[C@H]4O)[C@H]3O)O[C@H](CO)[C@H]2O)O[C@H](CO)[C@H]1O,MIC,Nannizzia gypsea [1],1.4 µM
same,MIC,Candida tropicalis [2],1.4 µM
CC1CC[C@@H](O)/C=C/CC[C@H](O)C[C@@H](O)C/C=C\C=C\[C@@H](O)C/C=C/C=C\C(=O)O1 (some centres not stated),MIC,Pyricularia oryzae [3],0.8 µg/mL
same,MIC,Alternaria solani,0.8 µg/mL
CCC(C)CC(C)[C@@H](O)[C@@H](C)C(=O)N[C@H](CN)C(=O)N[C@@H]([C@H](O)[C@H](O)C(=O)N[C@H](C(=O)N[C@H]1C(=O)N[C@H]([C@@H](C)O)C(=O)N[C@H](CCCN)C(=O)N[C@@H](CC(C)C)C(=O)N(C)[C@@H](CCC(N)=O)C(=O)NC(C(OC)C(N)=O)C(=O)N[C@H](CC(N)=O)C(=O)N(C)[C@@H](CC(C)C)C(=O)O[C@@H]1C)[C@@H](C)C(C)C(N)=O)C(C)(C)O (some centres not stated),inhibition zone (IZ),Candida albicans [4],8 mm
CO[C@@H]1[C@@H](O)[C@H](O[C@@H]2[C@@H](O)[C@H](O[C@@H]3[C@@H](O)[C@H](O)[C@@H](O[C@H]4[C@H](O[C@H]5CC[C@@H]6C7=C[C@H](O)[C@]89C(=O)O[C@@](C)(CCC=C(C)C)[C@H]8CC[C@@]9(C)[C@@H]7CC[C@H]6C5(C)C)OC[C@@H](O[C@@H]5O[C@H](CO)[C@@H](O)[C@H](O[C@@H]6O[C@H](CO)[C@@H](O)[C@H](OC)[C@H]6O)[C@H]5O)[C@@H]4O)O[C@H]3C)O[C@H](CO)[C@H]2O)O[C@H](CO)[C@H]1O,MIC,Trichophyton rubrum,0.7 µM
same,MIC,Pichia kudriavzevii,0.7 µM
same,MIC,Cryptococcus neoformans [5],0.7 µM
same,MIC,Aspergillus fumigatus [6],0.7 µM
same,MIC,Candida albicans [7],0.7 µM
same,MIC,Candida tropicalis [8],0.7 µM
CO[C@H](c1ccc(O)cc1)[C@@H](NC(=O)[C@H](CCC(N)=O)NC(=O)[C@H](CC(C)C)NC(=O)[C@@H](CCCNC(=N)N)NC(=O)[C@H](NC(=O)[C@H](NC(=O)[C@@H](NC(=O)[C@H](O)[C@H](O)[C@H](CCCNC(=N)N)NC(=O)[C@@H](C)NC(=O)[C@H](C)[C@H](O)[C@H](C)CC(C)C)[C@@H](C)CC(N)=O)[C@@H](C)O)[C@@H](C)O)C(=O)N(C)[C@@H](C)C(=O)O,MIC,Candida albicans [9],0.15 µg/mL
COc1ccc2c(c1OC)O[C@]1(C(=O)N3O[C@@H]4C(=CC=C[C@H]4O)C[C@@]3(SC)C(=O)N1C)[C@@H]2SC,MIC,Alternaria brassicae,4 µg/mL
CC(=O)OCc1cc(=O)occ1O,MIC,Fusarium oxysporum,1 µg/mL
same,MIC,Epidermophyton floccosum,1 µg/mL
same,MIC,[10],1 µg/mL
same,MIC,Candida albicans [11],1 µg/mL
same,MIC,Nannizzia gypsea [12],1 µg/mL
same,MIC,Aspergillus niger [13],1 µg/mL
same,MIC,Aspergillus fumigatus [14],1 µg/mL
CO[C@@H]1[C@@H](O)[C@H](O[C@@H]2[C@@H](O)[C@H](O[C@@H]3[C@@H](O)[C@H](O)[C@@H](O[C@H]4[C@H](O[C@H]5CC[C@@H]6C7=C[C@H](O)[C@]89C(=O)O[C@@](C)(CCCC(C)C)[C@H]8CC[C@@]9(C)[C@@H]7CC[C@H]6C5(C)C)OC[C@@H](O[C@@H]5O[C@H](CO)[C@@H](O)[C@H](O[C@@H]6O[C@H](CO)[C@@H](O)[C@H](OC)[C@H]6O)[C@H]5O)[C@@H]4O)O[C@H]3C)O[C@H](CO)[C@H]2O)O[C@H](CO)[C@H]1O,MIC,Trichophyton rubrum,0.7 µM
same,MIC,Pichia kudriavzevii,0.7 µM
same,MIC,Cryptococcus neoformans [5],0.7 µM
same,MIC,Aspergillus fumigatus [6],0.7 µM
same,MIC,Candida albicans [7],0.7 µM
same,MIC,Candida tropicalis [8],0.7 µM
CCCCCCCCC(O)C(O)CC/C=C\CCCCCC(O)C(N)CO (configuration not stated),MIC,Candida tropicalis [15],0.4 µg/mL
same,MIC,Candida albicans [16],0.4 µg/mL
same,MIC,Cryptococcus neoformans [17],0.2 µg/mL
same,MIC,Candida tropicalis [18],0.4 µg/mL
CCC(C)CC(C)/C=C(C)/C=C/CC(C)C(O)C(C)/C=C(C)/C=C/C(O)C(C)c1cc(O)c(C2OC(CO)CC(O)C2O)c(=O)o1 (configuration not stated),IC50,Cryptococcus neoformans [19],1.56 µg/mL
same,IC50,Saccharomyces cerevisiae,1.56 µg/mL
CCCCC(C)C/C(=C/[C@@]1(CC)OC(=O)C[C@@H]1O)CC (some centres not stated) [SIMPLEXOLIDE E],MIC,Cryptococcus neoformans [20],3.66 µg/mL
CC[C@@H](CC(=O)C(Cl)Cl)[C@H](C)c1ccc([N+](=O)[O-])cc1,MIC,Aspergillus niger [21],0.1 µg/mL
same,MIC,Ogataea angusta,0.1 µg/mL
same,MIC,Cryptococcus neoformans [22],0.1 µg/mL
same,MIC,Rhagastis acuta,0.1 µg/mL
same,MIC,Candida albicans [23],0.1 µg/mL
same,MIC,Botrytis fabae,0.1 µg/mL
C=C(C)CCC[C@@]1(C)OC(=O)[C@]23CC=C4C(=CC[C@H]5C(C)(C)[C@@H](O[C@@H]6OC[C@@H](O[C@@H]7O[C@H](CO)[C@@H](O)[C@H](O[C@@H]8O[C@H](CO)[C@@H](O)[C@H](O)[C@H]8O)[C@H]7O)[C@H](O)[C@H]6O[C@@H]6O[C@H](CO)[C@@H](O[C@@H]7OC[C@@H](O)[C@H](O[C@@H]8O[C@H](CO)[C@@H](O)[C@H](OC)[C@H]8O)[C@H]7O)[C@H](O)[C@H]6O)CC[C@]45C)[C@@]2(C)CC(=O)[C@@H]13,MIC,Nannizzia gypsea [1],1.4 µM
same,MIC,Candida tropicalis [2],1.4 µM
CC(C)=CCn1cc(CC2NC(=O)C(C(C)C)NC2=O)c2ccccc21 (configuration not stated),MIC,Pyricularia oryzae [24],0.127 µg/mL
